Source: patent US9079891B2, “Compounds that modulate intracellular calcium” (CALCIMEDICA, INC., priority 2010, dated 2015)
Like-named read-outs stand apart in the source and are kept apart here.

Experiments:
[1] = target: T1, recombinant human STIM1 and Orai1 (Homo sapiens, UniProt Q96D31); experiment: Fluorescence-based assay of store-operated calcium entry in Orai1/STIM1 stable cells (FLIPR); assay type: cell-based; conditions: for IC50: HEK-293 cells stably expressing human Orai1/STIM1, Fluo-4, Peak-Basal signal, read-out: FLIPR_CRAC: 9 point CRC: O1S1_JR251: IC50: Peak_over_Basal
T1 construct: c-myc (C); expressed in transfected cells; host or cells: HEK-293 cells stably expressing human STIM1 and human Orai1
T1 sequence (Q96D31 whole entry): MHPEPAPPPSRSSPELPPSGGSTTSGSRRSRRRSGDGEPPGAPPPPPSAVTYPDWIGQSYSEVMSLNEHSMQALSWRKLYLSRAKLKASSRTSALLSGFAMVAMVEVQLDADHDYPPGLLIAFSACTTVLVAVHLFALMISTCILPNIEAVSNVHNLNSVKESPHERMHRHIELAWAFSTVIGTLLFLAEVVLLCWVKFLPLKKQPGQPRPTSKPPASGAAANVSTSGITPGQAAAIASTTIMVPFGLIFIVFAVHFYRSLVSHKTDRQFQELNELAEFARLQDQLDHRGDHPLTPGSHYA
Protocol: A. Fluorescence-Based Assay of Store-Operated Calcium Entry in Orai1/Stim1 Stable Cells.
Cells stably expressing recombinant human STIM1 and Orai1 are generated by transfecting a human Orai1 expression plasmid (pcDNA3.1-Orai1-cmyc) into HEK-293 cells stably overexpressing human STIM1 (Roos et al. 2005 JCB 169(3): 435-445). Colonies of cells stably expressing both STIM1 and Orai1 proteins are selected and then subcloned by limiting dilution. Cells were cultured at 37° C./6% CO2 in complete medium with 10% FBS and appropriate selection markers.
The day prior to performing the assay Orai1/STIM1 stable cells are plated in 50 μL of complete medium at 90-95% confluence in a 384 well plate. Cells are grown at 37° C./6% CO2 overnight. On the day of the assay, 1.5 μM fluo-4-AM (Invitrogen) in complete medium is added to the cells, which are then incubated for 1 hour at RT. Cells are washed once in Ca^2+-free HBSS (Hank's buffered saline solution) and 35 μl of Ca^2+-free HBSS is added to each well. Test compounds are added to wells in a 10 μL Ca^2+-free HBSS solution, prepared at 4.5× the desired final concentration, and incubated for 30 minutes at RT. The initial baseline fluorescence signal is then measured with a FLIPR^384 (Molecular Devices) plate reader. Calcium entry is initiated by adding 5 μl of 10×CaCl2 (10 mM) in HBSS, and changes in cellular fluorescence are measured with the FLIPR^384 plate reader. In each well, the magnitude of the fluorescence signal as a result of calcium entry into the cell is determined by calculating the difference between the peak fluorescence signal measured after calcium addition and the initial baseline fluorescence signal (designated Peak-Basal). IC50 values are typically calculated as the concentration that inhibited 50% of the Peak-Basal signal.

RBL-2H3 cells = experiment: Fluorescence-based assay of store-operated calcium entry in RBL-2H3 cells (FLIPR, thapsigargin); assay type: cell-based, rat; conditions: Fluo-4, Upslope 0-7 sec, read-out: FLIPR_CRAC: 9 pt CRC - Fluo4_TG-D: RBL-2H3: IC50: Upslope 0-7 sec
Protocol: B. Fluorescence-Based Assay of Store-Operated Calcium Entry in RBL-2H3 Cells.
RBL-2H3 cells are obtained from ATCC and maintained in complete medium with 10% FBS at 37° C./6% CO2.
The day prior to performing the assay, RBL-2H3 cells are plated in 50 μl of complete medium in a 384 well plate. Cells are grown at 37° C./6% CO2 overnight and grow to 50-60% confluence by the next day. On the assay day, 1.5 μM Fluo-4-AM dye (Invitrogen) in complete medium is added and incubated for 1 hour at RT. Cells are washed twice in Ca^2+-free HBSS buffer and 35 μl Ca^2+-free HBSS buffer is added to each well. 10 μl of a test compound prepared in a Ca^2+-free HBSS solution at 4.5× of the desired concentration is added to a well and incubated for 5 minutes at RT. 10 μl of thapsigargin prepared in a Ca^2+-free HBSS solution at 5.5× of the desired concentration (5.5 uM) is added to each well and incubated for an additional 25 minutes. The initial baseline fluorescence signal is measured with a FLIPR^384 (Molecular Devices) plate reader. 5 μl of 12× calcium in HBSS (12 mM) is added and changes in cellular fluorescence are measured with the FLIPR^384 plate reader. In each well, the change in the fluorescent signal as a function of time due to calcium entry into the cell is determined by calculating the difference between the fluorescent signal measured 7 seconds after calcium addition and the initial baseline fluorescence signal at time zero (t=0). This parameter is designated Upslope. The IC50 value is calculated as the concentration at which 50% of the Upslope is inhibited.

[2] = system: secreted IL-2 in Jurkat T cells; experiment: In vitro assay of cytokine (IL-2) release from T cells; assay type: cell-based; conditions: Homo sapiens; Jurkat E6-1 cells; PHA/TPA stimulation 20 hours; IL-2 ELISA
Protocol: In Vitro Assay of Cytokine Release from T Cells
Jurkat E6-1 cells are obtained from ATCC and maintained in complete medium with 10% FBS at 37° C./6% CO2.
The day prior to performing the assay, Jurkat T cells are plated in 90 μL of HBSS Buffer with 1.8 mM CaCl2 and 1.75% fetal bovine serum (FBS) in a 96 well plate at a density of 1.5×10^5 cells/well for 3 hours. 10 μl of 10× test compound prepared in HBSS is added and incubated for 10 minutes at 37° C./6% CO2. Cells are stimulated by the addition of 10 μl of 11×PHA/TPA (27.5 μg/mL PHA/880 nM TPA) and incubated at 37° C./6% CO2 for 20 hours. On the following day, the supernatants are collected and assayed for IL-2 levels by ELISA according to the manufacturer's protocols. The IC50 value is calculated as the concentration at which 50% of secreted IL-2 in vehicle treated cells is inhibited.

Molecule | IC50 [1] [µM] | IC50 (RBL-2H3 cells; Rattus norvegicus) [µM] | IC50 [2] [µM] | FLIPR_CRAC: 9 point CRC: O1S1_JR251: efficacy ([1]; printed in the IC50 column in place of a class symbol) [% efficacy] | IC50 (RBL-2H3 cells) [µM]
Cc1nc2cc(Cl)c(-c3ccc(C(=O)Nc4ccccc4Cl)s3)cc2o1 [Example 1, [5-(5-chloro-2-methylbenzoxazol-6-yl)(2-thienyl)]-N-(2-chlorophenyl)carboxamide] | < 0.6 | < 0.6 | < 0.05 |  | 
Cc1nc2cc(Cl)c(-c3ccc(C(=O)Nc4ccccc4F)s3)cc2o1 [Example 2, [5-(5-chloro-2-methylbenzoxazol-6-yl)(2-thienyl)]-N-(2-fluorophenyl)carboxamide] | < 0.6 | < 0.6 | < 0.05 |  | 
Cc1nc2cc(Cl)c(-c3ccc(C(=O)Nc4c(F)cccc4F)s3)cc2o1 [Example 3, [5-(5-chloro-2-methylbenzoxazol-6-yl)(2-thienyl)]-N-(2,6-difluorophenyl)carboxamide] | < 0.6 | < 0.6 | < 0.05 |  | 
Cc1cc2scnc2cc1-c1ccc(C(=O)Nc2c(F)cccc2F)s1 [Example 4, N-(2,6-difluorophenyl)[5-(6-methylbenzothiazol-5-yl)(2-thienyl)]carboxamide] | < 0.6 | < 0.6 | < 0.05 |  | 
Cc1cc2scnc2cc1-c1ccc(C(=O)Nc2ccccc2F)s1 [Example 5, N-(2-fluorophenyl)[5-(6-methylbenzothiazol-5-yl)(2-thienyl)]carboxamide] | < 0.6 | < 0.6 | < 0.05 |  | 
Cc1cc2scnc2cc1-c1ccc(C(=O)Nc2ccccc2Cl)s1 [Example 6, N-(2-chlorophenyl)[5-(6-methylbenzothiazol-5-yl)(2-thienyl)]carboxamide] | < 0.6 | < 0.6 | < 0.05 |  | 
O=C(Nc1c(F)cccc1F)c1ccc(-c2cc3scnc3cc2Cl)s1 [Example 7, N-(2,6-difluorophenyl)[5-(5-chlorobenzothiazol-6-yl)(2-thienyl)]carboxamide] | < 0.6 | < 0.6 | < 0.05 |  | 
O=C(Nc1ccccc1F)c1ccc(-c2cc3scnc3cc2Cl)s1 [Example 9, [5-(5-chlorobenzothiazol-6-yl)(2-thienyl)]-N-(2-fluorophenyl)carboxamide] | < 0.6 | < 0.6 | < 0.05 |  | 
Cc1cc2c(C)noc2cc1-c1ccc(C(=O)Nc2c(F)cccc2F)s1 [Example 10, N-(2,6-difluorophenyl)[5-(3,5-dimethylbenzo[d]isoxazol-6-yl)(2-thienyl)]carboxamide] | < 0.6 | < 0.6 | < 0.05 |  | 
Cc1cc2c(C)noc2cc1-c1ccc(C(=O)Nc2ccccc2F)s1 [Example 11, [5-(3,5-dimethylbenzo[d]isoxazol-6-yl)(2-thienyl)]-N-(2-fluorophenyl)carboxamide] | < 0.6 | < 0.6 | < 0.05 |  | 
Cc1cc2cn(C)nc2cc1-c1ccc(C(=O)Nc2ccccc2F)s1 [Example 13] | < 0.6 | < 0.6 | < 0.05 |  | 
Cc1nc2cc(Cl)c(-c3cnc(NC(=O)c4ccccc4Cl)s3)cc2o1 [Example 19, N-[5-(5-chloro-2-methybenzoxazol-6-yl)(1,3-thiazol-2-yl)](2-chlorophenyl)carboxamide] | < 0.6 | < 0.6 | 0.05 to 0.1 |  | 
Cc1cc2scnc2cc1-c1cnc(NC(=O)c2c(F)cccc2F)s1 [Example 20] | 0.6 to 1.2 | < 0.6 | < 0.05 |  | 
(2,6-difluorophenyl-N-{5-[2-(fluorophenyl)-1-methylpyrazol-5-yl](1,3-thiazol-2-yl)]carboxamide [Example 69] | 0.6 to 1.2 |  |  |  | < 0.6

Further lines, with some results ahead:

IC50 [1] [µM] | IC50 (RBL-2H3 cells; Rattus norvegicus) [µM] | IC50 [2] [µM] | FLIPR_CRAC: 9 point CRC: O1S1_JR251: efficacy ([1]; printed in the IC50 column in place of a class symbol) [% efficacy] | Molecule | IC50 (RBL-2H3 cells) [µM]
0.6 to 1.2 | < 0.6 | < 0.05 |  | CCn1nc(C(F)(F)F)cc1-c1cnc(NC(=O)c2ccccc2Cl)s1 [Example 24, (2-chlorophenyl)-N-{5-[1-ethyl-3-(trifluoromethyl)pyrazol-5-yl](1,3-thiazol-2-yl)}carboxamide] | 
< 0.6 | < 0.6 | < 0.05 |  | Cn1nc(C(F)(F)F)cc1-c1cnc(NC(=O)c2ccccc2Cl)s1 [Example 27, (2-chlorophenyl)-N-{5-[1-methyl-3-(trifluoromethyl)pyrazol-5-yl](1,3-thiazol-2-yl)}carboxamide] | 
< 0.6 | < 0.6 |  |  | Cn1nc(C(F)(F)F)cc1-c1ccc(NC(=O)c2ccccc2F)s1 [Example 71, (2-fluorophenyl)-N-{5-[1-methyl-3-(trifluoromethyl)pyrazol-5-yl](2-thienyl)}carboxamide] | 
0.6 to 1.2 | 0.6 to 1.2 |  |  | Cn1nc(C(F)(F)F)cc1-c1cnc(NC(=O)c2ccc(Cl)cc2)s1 [Example 73] | 
 | > 1.2 |  | <50 | Cn1nc(C(F)(F)F)cc1-c1ccc(NC(=O)c2ccncc2F)s1 [Example 75, (3-fluoro(4-pyridyl))-N-{5-[1-methyl-3-(trifluoromethyl)pyrazol-5-yl](2-thienyl)}carboxamide] | 
< 0.6 | < 0.6 |  |  | Cn1nc(C(F)(F)F)cc1-c1cnc(NC(=O)c2ccncc2F)s1 [Example 76] | 
0.6 to 1.2 | < 0.6 |  |  | Cn1nc(C(F)(F)F)cc1-c1ccc(NC(=O)c2c(F)cncc2F)s1 [Example 77, (3,5-difluoro(4-pyridyl))-N-{5-[1-methyl-3-(trifluoromethyl)pyrazol-5-yl](2-thienyl)}carboxamide] | 
> 1.2 | 0.6 to 1.2 |  |  | Cn1nc(C(F)(F)F)cc1-c1cnc(NC(=O)c2c(F)cncc2F)s1 [Example 78] | 
> 1.2 | 0.6 to 1.2 |  |  | Cc1cc2c(cc1-c1ccc(NC(=O)c3ccccc3F)s1)OC(F)(F)O2 [Example 79, N-[5-(2,2-difluoro-6-methylbenzo[d]1,3-dioxolen-5-yl)(2-thienyl)](2-fluorophenyl)carboxamide] | 
> 1.2 | < 0.6 |  |  | Cc1cc2c(cc1-c1ccc(NC(=O)c3c(F)cccc3F)s1)OC(F)(F)O2 [Example 80, N-[5-(2,2-difluoro-6-methylbenzo[d]1,3-dioxolen-5-yl)(2-thienyl)](2,6-difluorophenyl)carboxamide] | 
> 1.2 | < 0.6 |  |  | Cc1cc2c(cc1-c1cnc(NC(=O)c3c(F)cncc3F)s1)OC(F)(F)O2 [Example 81, (3,5-difluoro(4-pyridyl))-N-[5-(2,2-difluoro-6-methylbenzo[d]1,3-dioxolen-5-yl)(1,3-thiazol-2-yl)]carboxamide] | 
